Source: patent US20150197480A9 (Academia Sinica, priority 2013, published 2015)
Where two headings read alike, the source gives them in different places. Blank lines part the entries; values can stand above or below the compound they belong to.

Key:
GLP-1 receptor [1] = molecular target: T1, GLP-1 receptor (Rattus norvegicus, UniProt P32301); conditions: for cAMP production by compound alone: absence of GLP-1; for intrinsic agonistic or antagonistic activity: summary of studies; for effect on GLP-1 dose-response curve / GLP-1 stimulated cAMP production: FIG. 9A
T1 sequence (P32301 22-463): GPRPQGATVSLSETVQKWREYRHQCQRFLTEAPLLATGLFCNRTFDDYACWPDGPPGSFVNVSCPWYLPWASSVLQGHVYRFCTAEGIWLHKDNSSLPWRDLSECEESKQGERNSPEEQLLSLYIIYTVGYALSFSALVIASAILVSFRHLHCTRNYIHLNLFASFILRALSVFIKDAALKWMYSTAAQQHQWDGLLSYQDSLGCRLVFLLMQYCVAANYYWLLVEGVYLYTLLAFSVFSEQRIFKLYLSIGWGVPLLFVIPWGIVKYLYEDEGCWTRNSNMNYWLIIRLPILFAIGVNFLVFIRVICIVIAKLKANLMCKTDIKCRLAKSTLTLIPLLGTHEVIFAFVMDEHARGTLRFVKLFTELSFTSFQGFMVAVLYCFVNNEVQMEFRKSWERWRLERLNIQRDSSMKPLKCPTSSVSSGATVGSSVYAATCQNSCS
From the text: (§1) In the resting stage when the intracellular cAMP is minimal, a large BRET ratio was observed.

GLP-1 = GLP-1 (Homo sapiens, UniProt P01275); assay: Limited trypsin digestion of GLP-1 peptide; type: biochemical; conditions: free GLP-1 or with galanal b; preliminary observation
From the text: This is consistent with the finding that GPCR can exist in multiple active conformations, distinct conformation of the receptor is stabilized by distinct ligand structure and may lead to distinct signaling selectivity (55). […] There are at least two possible mechanisms to account for these observations. […] By binding to and modifying structural conformation of the receptor, the allosteric inhibitor of parturition (PDC 113.824) induces biased signaling when an orthosteric ligand is co-bound to the prostaglandin F2α receptor (56). […] Subtle conformation changes in peptide agonists can lead to selective coupling of the receptor to its downstream signaling pathway. As it has been shown in the case of biased agonist for the type 1 parathyroid hormone receptor (PTH1R) (25) and angiotensin II type 1A receptor ligands (57), subtle structure change of the peptide ligands can profoundly stabilize a distinct conformation of the receptor protein that selectively affects the coupling efficiency of a particular downstream signaling pathway.

[2] = system: cAMP production elicited by GIP; conditions: 0.025 mg/ml; FIG. 11
From the text: as §1

[3] = system: cAMP production elicited by glucagon; conditions: 0.025 mg/ml; FIG. 11
From the text: as §1

GLP-1 receptor [4] = molecular target: T2, GLP-1 receptor (Homo sapiens, UniProt P43220); assay: Receptor endocytosis assay, U2OS cells co-expressing GLP-1 receptor and β-arrestin2:GFP; type: cell-based; conditions: for positive modulation effect on GLP-1 elicited receptor endocytosis in the presence of exendin 9: FIG. 8, plus 1.8 mM of Exendin 9; for Efficacy of GLP-1 to elicit receptor endocytosis: Table 2, printed (100%), GLP-1 only or GLP-1 plus indicated compound
T2 construct: expressed in transfected cells; host or cells: U2OS osteosarcoma cells stably expressing beta-arrestin2:GFP (Norak Biosciences)
Method: U2OS osteosarcoma cell line stably expressing a β-arrestin2:GFP fusion protein was obtained from Norak Biosciences (now Molecular Devices, part of MDS Inc., Mississauga, Ontario). […] Extracts were supplied at a concentration of 100 mg/ml in 100% DMSO. […] Plates were washed with PBS twice and sealed and could be stored at 4° C. The final concentration of the extract in the cell plate was 0.1, 0.03 and 0.001 mg/ml, and the final DMSO concentration was 1%.
Images and data of the cells were performed according to reported methods (51), using an ArrayScan® VTI HCS Reader (Cellomics, Inc. Pittsburgh, Pa.). […] A 20×0.4 numerical aperture microscope objective was used for the imaging, 3 fields were imaged per well, and CELLOMICS's Spot Detector BIOAPPLICATION was used to acquire and analyze the images. For these experiments, the Spot Detector BIOAPPLICATION used the Hoechst-labeled nuclei to identify individual cells and then automatically counted and analyzed the GFP-labeled spots associate with each cell. In addition to the number of spots and the sum of their areas and pixel intensities, the BIOAPPLICATION also reports properties of the individual nuclei such as their area.
One unit of activity is defined as the activity that will reach 50% of maximal response in a well of 384-well plate.
In addition, these processes can be visualized from its image (52), thus easily exclude false positive hits.

GLP-1 receptor [5] = molecular target: T1, GLP-1 receptor; assay: cell-based
From the text: as §1

PTHR = molecular target: T3, PTHR (Homo sapiens, UniProt Q03431); assay: PTH induced receptor endocytosis, PTHR/β-arrestin 2 GFP U2OS cells; type: cell-based; conditions: 15 nM of PTH; FIG. 5B
T3 construct: expressed in transfected cells
T3 sequence (Q03431 27-593): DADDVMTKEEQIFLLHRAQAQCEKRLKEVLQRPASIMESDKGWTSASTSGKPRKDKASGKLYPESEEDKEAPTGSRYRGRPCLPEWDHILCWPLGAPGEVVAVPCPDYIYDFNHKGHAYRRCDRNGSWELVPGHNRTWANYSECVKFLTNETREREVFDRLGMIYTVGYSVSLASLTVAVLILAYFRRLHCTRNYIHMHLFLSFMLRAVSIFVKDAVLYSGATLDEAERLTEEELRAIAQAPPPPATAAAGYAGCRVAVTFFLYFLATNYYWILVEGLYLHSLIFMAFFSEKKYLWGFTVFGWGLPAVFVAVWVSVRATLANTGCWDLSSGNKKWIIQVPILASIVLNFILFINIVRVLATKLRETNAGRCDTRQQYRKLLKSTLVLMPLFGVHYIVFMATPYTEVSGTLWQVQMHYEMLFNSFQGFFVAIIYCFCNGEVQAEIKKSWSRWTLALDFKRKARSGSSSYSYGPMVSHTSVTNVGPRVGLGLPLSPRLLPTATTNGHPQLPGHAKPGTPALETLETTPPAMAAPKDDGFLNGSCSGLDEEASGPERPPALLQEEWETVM
Method: The GLP-1R/3-arrestin2 GFP (Panel A) or PTHR/β-arrestin 2 GFP (Panel B) double stable expression U2OS cells were plated in 384-well plastic plates at a density of 3000 cell/well and cultured overnight.
U2OS osteosarcoma cell line stably expressing a β-arrestin2:GFP fusion protein was obtained from Norak Biosciences (now Molecular Devices, part of MDS Inc., Mississauga, Ontario). […] Extracts were supplied at a concentration of 100 mg/ml in 100% DMSO. […] The 3 cell assay plates were incubated at room temperature for 60 min before fixation with 2% formaldehyde and labeling of the cell nuclei with 5 μg/mL of the DNA-binding dye Hoechst 33342 (Molecular Probes, Eugene, Oreg.) for 1 hr. Plates were washed with PBS twice and sealed and could be stored at 4° C. The final concentration of the extract in the cell plate was 0.1, 0.03 and 0.001 mg/ml, and the final DMSO concentration was 1%.

T2 sequence (P43220 24-463, species assumed): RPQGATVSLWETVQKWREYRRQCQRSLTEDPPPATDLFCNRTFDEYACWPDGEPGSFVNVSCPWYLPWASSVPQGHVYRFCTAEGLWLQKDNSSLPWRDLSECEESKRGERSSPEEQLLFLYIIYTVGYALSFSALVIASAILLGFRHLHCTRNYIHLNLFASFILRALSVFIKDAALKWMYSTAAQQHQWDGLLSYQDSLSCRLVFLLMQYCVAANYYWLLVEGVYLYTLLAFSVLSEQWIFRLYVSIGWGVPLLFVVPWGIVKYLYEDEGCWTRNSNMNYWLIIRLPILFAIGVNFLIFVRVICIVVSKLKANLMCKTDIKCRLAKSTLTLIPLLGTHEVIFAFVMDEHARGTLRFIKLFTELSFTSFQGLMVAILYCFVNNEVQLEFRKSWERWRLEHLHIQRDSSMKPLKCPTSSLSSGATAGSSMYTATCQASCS
Chain of GLP-1 (P01275 98-127 limits assumed): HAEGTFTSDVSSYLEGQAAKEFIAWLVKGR

SMILES: COc1cc(C2C(NC(=O)c3ccc(NC(=O)OC(C)(C)C)cc3)(C(=O)O)C(c3ccc(OC(=O)c4cccs4)c(OC)c3)C2(NC(=O)c2ccc(NC(=O)OC(C)(C)C)cc2)C(=O)O)ccc1OC(=O)c1cccs1 (stereo not drawn) [Boc5, reference compound]
concentration needed to stimulate low level cAMP production, fold higher (GLP-1 receptor [1]; RINm5F cells): 1000 fold

SMILES: CC[C@H](C)[C@H](NC(=O)[C@H](Cc1ccccc1)NC(=O)[C@H](CCC(=O)O)NC(=O)[C@H](CCCCN)NC(=O)[C@H](C)NC(=O)[C@H](C)NC(=O)[C@H](CCC(N)=O)NC(=O)CNC(=O)[C@H](CCC(=O)O)NC(=O)[C@H](CC(C)C)NC(=O)[C@H](Cc1ccc(O)cc1)NC(=O)[C@H](CO)NC(=O)[C@H](CO)NC(=O)[C@@H](NC(=O)[C@H](CC(=O)O)NC(=O)[C@H](CO)NC(=O)[C@@H](NC(=O)[C@H](Cc1ccccc1)NC(=O)[C@@H](NC(=O)CNC(=O)[C@H](CCC(=O)O)NC(=O)[C@H](C)NC(=O)[C@@H](N)Cc1c[nH]cn1)[C@@H](C)O)[C@@H](C)O)C(C)C)C(=O)N[C@@H](C)C(=O)N[C@@H](Cc1c[nH]c2ccccc12)C(=O)N[C@@H](CC(C)C)C(=O)N[C@H](C(=O)N[C@@H](CCCCN)C(=O)NCC(=O)N[C@@H](CCCNC(=N)N)C(=O)NCC(=O)O)C(C)C [GLP-1]
degradation of GLP-1 by limited trypsin digestion (GLP-1): quickly degraded

SMILES: Cl.c1ccc(C2CCCC2NC2=NCCCCCCCCCCC2)cc1 (stereo not drawn) [MDL 12330A, reference compound]
GLP-1 or forskolin dose response of cAMP (BRET ratio) in presence of inhibitor (GLP-1 receptor [1]; 250 μM): eliminated

SMILES: CC1(C)CCC[C@@]2(C)[C@H]1CC[C@@]1(CO)C(O)CC(CO)=CC[C@@H]12 (stereo partly drawn) [compound 2]
effect on cAMP production elicited by GIP [2]: do not affect
effect on cAMP production elicited by glucagon [3]: do not affect
concentration at which enhancement of cAMP production became saturated (GLP-1 receptor [1]; 3 nM of GLP-1, FIG. 9B): 0.03 mg/mL
left shift of dose response curve of GLP-1 (GLP-1 receptor [1]; 0.0025 mg/ml of compound 2): 2.5 orders of magnitude
potentiating effect on GLP-1 stimulated cAMP production in presence of exendin 9 or MDL12330A (GLP-1 receptor [1]; FIG. 10A, 10B): blocked
effect on cAMP production by small molecule agonist Boc5 (GLP-1 receptor [1]; RINm5F cells): little effect
potentiation of the affinity of GLP-1 / GLP-1 dependent cAMP production (GLP-1 receptor [1]; RINm5F cells): up to 1000 fold
potentiation of the affinity of GLP-1 / GLP-1 dependent cAMP production (GLP-1 receptor [1]; RINm5F cells, listed as Compound 2): 1000 fold
cAMP production by compound alone (GLP-1 receptor [1]): not able to induce cAMP production
cAMP production by compound alone (GLP-1 receptor [1]; listed as Compound 2): does not elicit cAMP production in the absence of GLP-1
intrinsic agonistic or antagonistic activity (GLP-1 receptor [1]): without intrinsic agonistic or antagonistic activity
positive modulation effect on GLP-1 elicited receptor endocytosis in the presence of exendin 9 (GLP-1 receptor [4]): diminished
Efficacy of GLP-1 to elicit receptor endocytosis (GLP-1 receptor [4]): 82%
EC50 (GLP-1 receptor [5]): 3.1 µM

SMILES: CC1(C)CCC[C@@]2(C)C1CC[C@@]1(C=O)[C@H](O)CC(C=O)=CC[C@@H]12 (stereo partly drawn) [galanal B]
potentiation effect on PTH induced receptor endocytosis (selectivity) (PTHR): did not show similar effect on PTH and its cognate receptor
effect on GLP-1 dose-response curve / GLP-1 stimulated cAMP production (GLP-1 receptor [1]; RINm5F cells): did not significantly affect
effect on GLP-1 dose-response curve / GLP-1 stimulated cAMP production (GLP-1 receptor [1]; RINm5F cells, listed as galanal b): neutral
cAMP production by 3 nM of GLP-1 (GLP-1 receptor [1]; galanal B up to 0.04 mg/ml, FIG. 9B): not changed
intrinsic agonistic or antagonistic activity (GLP-1 receptor [1]): without intrinsic agonistic or antagonistic activity
increase of the affinity of GLP-1 (GLP-1 receptor [4]; FIG. 5C, 0.001 mg/ml of galanal B): 4 folds
positive modulation effect on GLP-1 elicited receptor endocytosis in the presence of exendin 9 (GLP-1 receptor [4]): diminished
Efficacy of GLP-1 to elicit receptor endocytosis (GLP-1 receptor [4]): 115.2%
degradation of GLP-1 by limited trypsin digestion (GLP-1): protects GLP-1 from trypsin degradation

SMILES: CC1(C)CCC[C@]2(C)[C@H]3CC=C(C=O)C[C@@H](O)[C@]3(C=O)CC[C@@H]12 [galanal B]
potentiation effect on PTH induced receptor endocytosis (selectivity) (PTHR): selective for GLP-1 but not for PTH
EC50 to potentiate receptor endocytosis elicited by 4 nM GLP-1 (GLP-1 receptor [4]; 4 nM GLP-1): 0.24 µg/mL
GLP-1 response potentiated by the fraction (GLP-1 receptor [4]; 0.0002 mg/ml, 4 nM GLP-1, from 20%): 40%

The next lines start with the values.

melting point: 93 to 94 °C
SMILES: COC(=O)C1=CC[C@H]2[C@@H](CC[C@H]3C(C)(C)CCC[C@]23C)C(=O)C1 (racemic) [RJ-011, (±)-(6aS,11aS,11bR)-methyl 4,4,11b-trimethyl-7-oxo-2,3,4,4a,5,6,6a,7,8,11,11a,11b-dodecahydro-1H-cyclohepta[a]naphthalene-9-carboxylate]

melting point: 134 to 135 °C
SMILES: CC1(C)CCC[C@]2(C)[C@H]3CC=C(CO)C[C@@H](O)[C@@H]3CC[C@@H]12 (racemic) [RJ-013, (±)-(6aS,7R,11aS,11bR)-9-(hydroxymethyl)-4,4,11b-trimethyl-2,3,4,4a,5,6,6a,7,8,11,11a,11b-dodecahydro-1H-cyclohepta[a]naphthalen-7-ol]

melting point: 67 to 68 °C
SMILES: COC(=O)[C@@H]1CC[C@H]2C(CC[C@H]3C(C)(C)CCC[C@]23C)C(=O)C1 (mixture of isomers) [RJ-015, (±)-(6aS,11aS,11bR)-methyl 4,4,11b-trimethyl-7-oxotetradecahydro-1H-cyclo-hepta-[a]naphthalene-9-carboxylate]

melting point: 179 to 180 °C
SMILES: COC(=O)C1=CCC2C(CO)(CCC3C(C)(C)CCCC32C)C(=O)C1 [RJ-022, (6aR,1aR,11bS)-methyl6a-(hydroxymethyl)-4,4,11b-trimethyl-7-oxo-2,3,4,4a,5,6,6a,7,8,11,11a,11b-dodecahydro-1H-cyclohepta[a]naphthalene-9-carboxylate]
